Test results taken from US20060210479A1 (Dow Global Technologies Inc., priority 2004, published 2006).
“And” between values parts separate entries of the source, which are not always exact repeats. Identical values can stand only once. Like-named read-outs stand apart in the source and are kept apart here.

Key:
[1] = test system: excised human colorectal tissue; settings: 2 mM/5% ethanol aerosol spray, rinsing, UV 320 nm
Protocol: Excised tissue was received from human patients undergoing radical resection of the colon as a result of invasive cancer. Sections of tissue were received within 30 minutes of resection and the chelate solution applied as an aerosol spray followed by sequential aqueous rinsing to remove unbound chelate. The resulting tissue was then visualized under UV irradiation (320 nm) to detect the presence of the chelate (red-shifted emission).

SK-MES cells = settings: for EuQCTME Cell Binding (fluorescence per well): 1 mM
[2] = test system: MDA-231 breast adenocarcinoma cells
Protocol: (§1) To assess whether or not chelate treatment of cancer cells could produce a net modulation in cell growth, the overall growth inhibitory effect of chelates on various cancer cell lines was tested. The concentration of chelate necessary to produce 50% growth inhibition was measured, as determined by detection of the formazan product of cellular […] of 3-(4,5-dimethylthiazol-2-yl)-5-(3-carboxymethoxyphenyl)-2-(4-sulfophenyl)-2H-tetrazolium, inner salt (MTS).

[3] = test system: Caki-1 renal cell carcinoma cells; settings: read-out: Chelate Concentration Producing 50% Inhibition of Cancer Cell Growth, MTS, 96 hour continuous exposure
Protocol: as §1

[4] = test system: NCM460 normal human colon epithelial cells; settings: read-out: Chelate Concentration Producing 50% Inhibition of Cancer Cell Growth; NCM460 control line; MTS; 96 hour continuous exposure
Protocol: as §1

[5] = test system: SK-MES lung non-small cell squamous carcinoma cells; settings: read-out: Chelate Concentration Producing 50% Inhibition of Cancer Cell Growth, MTS, 96 hour continuous exposure
Protocol: as §1

[6] = test system: DU-145 prostate adenocarcinoma cells
Protocol: as §1

[7] = test system: HT-29 colon adenocarcinoma cells; settings: read-out: Chelate Concentration Producing 50% Inhibition of Cancer Cell Growth, MTS, 96 hour continuous exposure
Protocol: as §1

[8] = test system: LnCaP prostate adenocarcinoma cells
Protocol: as §1

[9] = test system: HLaC head & neck squamous cell carcinoma cells; settings: read-out: Chelate Concentration Producing 50% Inhibition of Cancer Cell Growth, MTS, 96 hour continuous exposure
Protocol: as §1

C-33A cervical cells = settings: read-out: Chelate Concentration Producing 50% Inhibition of Cancer Cell Growth, MTS, 96 hour continuous exposure
Protocol: as §1

[10] = test system: MDA-231-M breast adenocarcinoma cells, metastatic clone; settings: read-out: Chelate Concentration Producing 50% Inhibition of Cancer Cell Growth, MTS, 96 hour continuous exposure
Protocol: as §1

[11] = test system: CaCo-2 colorectal adenocarcinoma cells; settings: read-out: Chelate Concentration Producing 50% Inhibition of Cancer Cell Growth, MTS, 96 hour continuous exposure
Protocol: as §1

[12] = test system: normal cheek pouch tissue; settings: 2 mM solution topical, 10 minutes, readings Adjusted Volume CNT*mm2
Caco-2 cells [13] = settings: 1 mM, 1 h
Source text: (§2) Before images were captured, an aliquot of the HEPES binding buffer was mounted on a slide and observed for any background fluorescence.

RBL-2H3 cell line = experiment: Chelate permeability: fluorescence of cytoplasm and membrane fractions; assay type: cell-based, rat
Protocol: Tb-PCTMB (Tb(III) 3,6,9-tris(methylene phosphonic acid n-butyl ester)-3,6,9,15-tetraazabicyclo[9.3.1]pentadeca-1(15),11,13-triene) was tested for permeability to abnormal and disease-state cells.
RBL-2H3 is a rat basophilic leukemia cell line. These cells were grown in Iscove's Medium supplemented with 2 mM L-glutamnine, penicillin/streptomycin (100 IU/mL, 100 μg/mL) and 10% FBS. Cells were maintained at 5% CO2 and 95% humidity. PZ-HPV-7 cell line was derived from epithelial cells cultured from normal prostate tissue. They were grown in Keratinocyte-Serum Free Medium with human recombinant EGF and bovine pituitary extract supplemented with 50 μg/mL gentamicin and penicillin/streptomycin (100 IU/mL, 100 μg/mL). All media and supplements were purchased from Gibco BRL (Grand Island, N.Y., USA). All cell lines were obtained from ATCC and were maintained at 37° C., 5% CO2 and 95% humidity.
Cells were grown to confluence in T-150 flasks (about 2×10^6 cells). […] Cells were then removed from the flask by manual scraping. Cells were transferred to a 50-mL conical tube and centrifuged (400×g) for 5 minutes and the test material removed.
Cells were grown as described herein (Example 1). Cells were grown to confluence in T-150 flask (about 2×10^6 cells). […] Cells were then removed from the flask by manual scraping. Cells were transferred to a 50-mL conical tube and centrifuged (400×g) for 5 minutes and the test material removed.
Furthermore, one analogue, QCTMP (FIG. 26), having lesser lipophilic character (a free phosphonic acid moiety) was evaluated. […] In this study, the cytoplasm and membrane fractions were extracted by Mem-PER Eukaryotic Membrane Protein Extraction Reagent Kit as described by the manufacturers (Pierce Biotechnology, Rockford, Ill.) and analyzed by a Fluor-S Multilmager.

C33-A cells = settings: for EuQCTME Cell Binding (fluorescence per well): 1 mM
[14] = test system: DMBA-induced tumor tissue of buccal cheek pouch; settings: 2 mM solution topical, 10 minutes; for Fluorescence/mg Cytoplasm / Fluorescence/mg Membrane: readings Adjusted Volume CNT*mm2
Caco-2 cells [15] = settings: 1 mM
[16] = test system: cancer cells (LNCaP, Caco-2, T84); experiment: Chelate permeability and specificity, cancer cells versus normal cells (summary); assay type: cell-based, human; settings: cancer cells
NCM460 cells = settings: 1 mM, 1 h
Source text: as §2

In the case of `CCOP(=O)([O-])CN1CCN(Cc2ccc3cc(C)ccc3n2)CCN(CP(=O)([O-])OCC)CCN(CP(=O)([O-])OCC)CC1.[Eu+3]` [Eu-QCTME, Eu(III) N-(6-methyl-2-quinolylmethyl)-N′,N″,N′″-tris(methylenephosphonic acid ethyl ester)-1,4,7,10-tetraazacyclododecane], the “localization in adjacent normal tissue” value [1] is reported as “no detectable localization”, the “localization in diseased tissue (adenocarcinoma and pre-malignant neoplasm)” value [1] is reported as “found to localize in diseased tissue” and the “EuQCTME Cell Binding (fluorescence per well)” value (SK-MES cells; 2 min) is reported as 21,983. The “EuQCTME Cell Binding (fluorescence per well)” value (SK-MES cells; 5 min) was 11,756, the “EuQCTME Cell Binding (fluorescence per well)” value (SK-MES cells; 15 min) was 8,588 and the “EuQCTME Cell Binding (fluorescence per well)” value (SK-MES cells; 30 min) was 7,237. The “EuQCTME Cell Binding (fluorescence per well)” value (SK-MES cells; 45 min) was 9,513, the “EuQCTME Cell Binding (fluorescence per well)” value (SK-MES cells; 60 min) was 5,358 and the “EuQCTME Cell Binding (fluorescence per well)” value (SK-MES cells; 120 min) was 8,159. The “EuQCTME Cell Binding (fluorescence per well)” value (SK-MES cells; 180 min) was 5,682, the “EuQCTME Cell Binding (fluorescence per well)” value (SK-MES cells; 240 min) was 15,625 and the “Totals: Normalized total area under each curve (AUC)” value (SK-MES cells; over 240 min) was 28. For the same compound, the “inhibitory activity, time course MTS” value ([2]; MDA-231, 500 μM, 24 hours) was “showed inhibitory activity”, the growth inhibition ([2]; MDA-MB-231, 500 μM, 24 hours exposure) was “over 30%” and the IC50 ([2]; read-out: Chelate Concentration Producing 50% Inhibition of Cancer Cell Growth, MDA-231, MTS, 96 hour continuous exposure) was 39.6 µM. For the same compound, the IC50 [3] was 16 µM, the IC50 [4] was 123 µM and 124 µM and the IC50 [5] was 140 µM. The “inhibitory activity, time course MTS” value ([6]; 500 μM, 24 hours) was “showed inhibitory activity”, the IC50 ([6]; read-out: Chelate Concentration Producing 50% Inhibition of Cancer Cell Growth, MTS, 96 hour continuous exposure) was 54.4 µM and the IC50 [7] was 15.8 µM. The growth inhibition ([8]; LNCAP, 500 μM, 24 hours exposure) was “over 30%”, the IC50 ([8]; read-out: Chelate Concentration Producing 50% Inhibition of Cancer Cell Growth, LnCaP, MTS, 96 hour continuous exposure) was 46.4 µM and the IC50 [9] was 21.9 µM. It also gave an IC50 (C-33A cervical cells) of 41 µM, an IC50 [10] of 46.8 µM and an IC50 [11] of 134 µM. The “Fluorescence/mg Cytoplasm” value ([12]; Normal 1) was 1344, the “Fluorescence/mg Membrane” value ([12]; Normal 1) was 1348 and the “Fluorescence/mg Cytoplasm” value ([12]; Normal 2) was 1369. The “Fluorescence/mg Membrane” value ([12]; Normal 2) was 1374, the “localization by confocal microscopy” value (Caco-2 cells [13]) was “predominantly cytoplasmic localization” and the “fluorescence in the membrane fractions, dose response” value (RBL-2H3 cell line; 0-2000 μM, 2 hours) was “detectable quantity of fluorescence”. For the same compound, the “fluorescence in the cytoplasm, dose response” value (RBL-2H3 cell line; 0-2000 μM, 2 hours, compared to PZ-HPV-7) was “significant increases in fluorescence”, the “Fluorescence/mg Cytoplasm” value (RBL-2H3 cell line; 1 mM chelate, 2 h, Table 4) was 4415 and the “Fluorescence/mg Membrane” value (RBL-2H3 cell line; 1 mM chelate, 2 h, Table 4) was 2644. For the same compound, the “EuQCTME Cell Binding (fluorescence per well)” value (C33-A cells; 2 min) was 2,967, the “EuQCTME Cell Binding (fluorescence per well)” value (C33-A cells; 5 min) was 22,763 and the “EuQCTME Cell Binding (fluorescence per well)” value (C33-A cells; 15 min) was 5,075. For the same compound, the “EuQCTME Cell Binding (fluorescence per well)” value (C33-A cells; 30 min) was 2,923, the “EuQCTME Cell Binding (fluorescence per well)” value (C33-A cells; 45 min) was 7,030 and the “EuQCTME Cell Binding (fluorescence per well)” value (C33-A cells; 60 min) was 583. For the same compound, the “EuQCTME Cell Binding (fluorescence per well)” value (C33-A cells; 120 min) was 1,275, the “EuQCTME Cell Binding (fluorescence per well)” value (C33-A cells; 180 min) was 2,377 and the “EuQCTME Cell Binding (fluorescence per well)” value (C33-A cells; 240 min) was 1,322. For the same compound, the “Totals: Normalized total area under each curve (AUC)” value (C33-A cells; over 240 min) was 9, the “fluorescence in the cytoplasm of tumor tissue compared to normal tissue” value [14] was “significantly greater fluorescence” and the “Fluorescence/mg Cytoplasm” value ([14]; Tumor 1) was 3524. For the same compound, the “Fluorescence/mg Membrane” value ([14]; Tumor 1) was 1670, the “Fluorescence/mg Cytoplasm” value ([14]; Tumor 2) was 3659 and the “Fluorescence/mg Membrane” value ([14]; Tumor 2) was 1676. For the same compound, the “EuQCTME Cell Binding (fluorescence per well)” value (Caco-2 cells [15]; 2 min) was 4,708, the “EuQCTME Cell Binding (fluorescence per well)” value (Caco-2 cells [15]; 5 min) was 3,391 and the “EuQCTME Cell Binding (fluorescence per well)” value (Caco-2 cells [15]; 15 min) was 6,806. The “EuQCTME Cell Binding (fluorescence per well)” value (Caco-2 cells [15]; 30 min) was 11,168, the “EuQCTME Cell Binding (fluorescence per well)” value (Caco-2 cells [15]; 45 min) was 10,872 and the “EuQCTME Cell Binding (fluorescence per well)” value (Caco-2 cells [15]; 60 min) was 21,176. The “EuQCTME Cell Binding (fluorescence per well)” value (Caco-2 cells [15]; 120 min) was 29,389, the “EuQCTME Cell Binding (fluorescence per well)” value (Caco-2 cells [15]; 180 min) was 31,510 and the “EuQCTME Cell Binding (fluorescence per well)” value (Caco-2 cells [15]; 240 min) was 4,575. The “permeability to cell membranes” value [16] was “permeable to cancer cell membranes” and the “uptake by confocal microscopy” value (NCM460 cells) was “only a minimal uptake”.
